Laboratory results from US12371428B2 (Exelixis, Inc., priority 2019, dated 2025).

Tests used:
[1] = target: Human MER (residues 528-999) (Homo sapiens (Human), UniProt Q12866); assay: Human Mer kinase assay, HTRF KinEase (Example C-2); assay type: biochemical; conditions: protocol of Example C-2
Summary of the method: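 HTRF KinEase TK assay with MER 528-999 (1 ng/well) in enzymatic buffer plus 5 mM MgCl2 and 1 mM DTT, biotinylated peptide substrate and ATP at Km (40 μM), 3% DMSO final, 60 min at room temperature. Stopped with EDTA detection mix (SA-XL665, TK antibody-Eu3+), read at 665/620 nm after 60 min; IC50 from 10-point 4-parameter fit, normalized to DMSO and 1 μM reference.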

[2] = target: Met (phospho-Met, HGF-stimulated PC-3 prostate cancer cells) (Homo sapiens (Human), UniProt P08581); assay: Met autophosphorylation ELISA in PC-3 cells (Example F); assay type: cell-based; conditions: cellular activity; Met autophosphorylation ELISA in PC-3 cells; read-out: c-Met IC50
Summary of the method: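 Serum-starved (3 h) PC-3 cells were treated 1 h with compounds (8-point curve, 0.3% DMSO), then stimulated with 100 ng/mL human HGF for 10 min. Lysate phospho-Met (panTyr) was measured by sandwich ELISA, normalised to DMSO and reference-inhibitor controls. IC50 came from 4-parameter logistic fit.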

Human MER (residues 528-999), sequence (Q12866 528-999): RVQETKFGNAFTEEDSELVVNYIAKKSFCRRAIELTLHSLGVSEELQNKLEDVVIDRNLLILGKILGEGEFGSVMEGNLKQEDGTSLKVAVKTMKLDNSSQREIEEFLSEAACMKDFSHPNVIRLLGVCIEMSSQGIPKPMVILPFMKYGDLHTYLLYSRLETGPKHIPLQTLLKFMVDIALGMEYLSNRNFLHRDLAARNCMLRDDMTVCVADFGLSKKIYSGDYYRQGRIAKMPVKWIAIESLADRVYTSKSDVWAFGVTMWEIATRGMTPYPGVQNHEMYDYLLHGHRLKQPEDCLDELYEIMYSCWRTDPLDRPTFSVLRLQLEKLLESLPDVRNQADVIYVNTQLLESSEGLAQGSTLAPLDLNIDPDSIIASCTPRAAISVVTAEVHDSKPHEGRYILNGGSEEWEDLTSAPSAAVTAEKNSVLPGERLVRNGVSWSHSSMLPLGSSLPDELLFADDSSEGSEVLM
Met (phospho-Met, HGF-stimulated PC-3 prostate cancer cells), sequence (P08581 25-1390): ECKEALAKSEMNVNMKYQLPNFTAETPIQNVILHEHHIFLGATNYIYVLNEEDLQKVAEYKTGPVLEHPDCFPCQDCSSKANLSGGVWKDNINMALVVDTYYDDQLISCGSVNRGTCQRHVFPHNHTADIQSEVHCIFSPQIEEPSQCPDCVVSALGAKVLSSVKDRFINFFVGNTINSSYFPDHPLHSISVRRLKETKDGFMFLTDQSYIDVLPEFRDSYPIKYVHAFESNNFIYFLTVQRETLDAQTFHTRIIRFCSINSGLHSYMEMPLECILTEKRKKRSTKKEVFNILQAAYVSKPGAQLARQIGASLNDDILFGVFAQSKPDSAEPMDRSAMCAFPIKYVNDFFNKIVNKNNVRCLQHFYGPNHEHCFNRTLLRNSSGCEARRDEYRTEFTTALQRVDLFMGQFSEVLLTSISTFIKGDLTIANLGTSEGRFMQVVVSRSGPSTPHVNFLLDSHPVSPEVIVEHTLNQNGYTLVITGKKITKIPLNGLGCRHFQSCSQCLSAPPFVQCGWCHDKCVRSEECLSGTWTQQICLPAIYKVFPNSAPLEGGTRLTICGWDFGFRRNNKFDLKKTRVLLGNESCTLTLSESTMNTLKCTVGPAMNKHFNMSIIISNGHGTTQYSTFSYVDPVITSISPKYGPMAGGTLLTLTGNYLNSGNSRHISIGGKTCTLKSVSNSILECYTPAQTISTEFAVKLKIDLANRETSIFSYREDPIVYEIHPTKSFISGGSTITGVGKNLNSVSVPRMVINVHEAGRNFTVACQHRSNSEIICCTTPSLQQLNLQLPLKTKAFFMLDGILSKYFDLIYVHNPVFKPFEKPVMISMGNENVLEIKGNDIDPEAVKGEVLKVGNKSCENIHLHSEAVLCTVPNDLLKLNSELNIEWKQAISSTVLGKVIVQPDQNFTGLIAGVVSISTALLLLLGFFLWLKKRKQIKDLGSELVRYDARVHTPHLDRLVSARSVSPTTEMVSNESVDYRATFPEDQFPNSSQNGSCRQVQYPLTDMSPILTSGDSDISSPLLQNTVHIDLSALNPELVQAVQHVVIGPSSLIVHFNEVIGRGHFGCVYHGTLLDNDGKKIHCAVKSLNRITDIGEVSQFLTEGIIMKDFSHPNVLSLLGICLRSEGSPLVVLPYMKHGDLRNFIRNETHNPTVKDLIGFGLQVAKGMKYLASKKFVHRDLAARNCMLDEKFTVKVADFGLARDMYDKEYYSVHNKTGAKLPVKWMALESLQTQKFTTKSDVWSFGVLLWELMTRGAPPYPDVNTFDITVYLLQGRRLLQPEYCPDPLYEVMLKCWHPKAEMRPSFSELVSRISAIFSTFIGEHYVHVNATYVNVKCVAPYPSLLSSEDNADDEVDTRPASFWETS

| Structure (SMILES) | IC50 [1] | IC50 [2] |
| --- | --- | --- |
| C=C(C)c1cnc2c(Oc3ccc(NC(=O)c4c(C)nc(C)c(-c5ccc(F)cc5)c4O)cc3)ccnc2c1 [Compound 455, 5-(4-fluorophenyl)-4-hydroxy-2,6-dimethyl-N-[4-[(7-prop-1-en-2-yl-1,5-naphthyridin-4-yl)oxy]phenyl]pyridine-3-carboxamide] | < 100 nM | < 100 nM |
| CCc1nc(C)c(-c2ccc(F)cc2C)c(O)c1C(=O)Nc1ccc(Oc2ccnc3ccc(OC)nc23)cc1 [Compound 526, 2-ethyl-5-(4-fluoro-2-methylphenyl)-4-hydroxy-N-[4-[(6-methoxy-1,5-naphthyridin-4-yl)oxy]phenyl]-6-methylpyridine-3-carboxamide] | < 100 nM | < 100 nM |
| COc1cc2nccc(Oc3ccc(NC(=O)c4c(C)n(C)c(C)c(-c5ccc(F)cc5)c4=O)cc3F)c2nc1OC [Compound 511, N-[4-[(6,7-dimethoxy-1,5-naphthyridin-4-yl)oxy]-3-fluorophenyl]-5-(4-fluorophenyl)-1,2,6-trimethyl-4-oxopyridine-3-carboxamide] | < 100 nM | < 100 nM |
| COc1cnc2c(Oc3ccc(NC(=O)c4c(C)n(C)c(C)c(-c5ccc(F)cc5)c4=O)cc3F)ccnc2c1 [Compound 508, N-[3-fluoro-4-[(7-methoxy-1,5-naphthyridin-4-yl)oxy]phenyl]-5-(4-fluorophenyl)-1,2,6-trimethyl-4-oxopyridine-3-carboxamide] | < 100 nM | < 100 nM |
| COCCOc1cnc2c(Oc3ccc(NC(=O)c4c(C)nc(C)c(-c5ccc(F)cc5)c4O)cc3F)ccnc2c1 [Compound 555, N-[3-Fluoro-4-[[7-(2-methoxyethoxy)-1,5-naphthyridin-4-yl]oxy]phenyl]-5-(4-fluorophenyl)-4-hydroxy-2,6-dimethylpyridine-3-carboxamide] | < 100 nM | < 100 nM |
| COc1cc2nccc(Oc3ccc(NC(=O)c4c(C)c(C)nn(-c5ccc(F)cc5)c4=O)cc3F)c2nc1OC [Compound 524, N-[4-[(6,7-dimethoxy-1,5-naphthyridin-4-yl)oxy]-3-fluorophenyl]-2-(4-fluorophenyl)-5,6-dimethyl-3-oxopyridazine-4-carboxamide] | < 100 nM | < 100 nM |
| COc1cc2nccc(Oc3cc(F)c(NC(=O)c4cnc(C)c(-c5ccc(F)cc5)c4O)cc3F)c2nc1C [Compound 542, N-[2,5-difluoro-4-[(7-methoxy-6-methyl-1,5-naphthyridin-4-yl)oxy]phenyl]-5-(4-fluorophenyl)-4-hydroxy-6-methylpyridine-3-carboxamide] | < 100 nM | < 100 nM |
| COc1cc2nccc(Oc3ccc(NC(=O)c4c(C)ncc(-c5ccc(F)cc5C)c4O)cc3F)c2nc1OC [Compound 479, N-[4-[(6,7-dimethoxy-1,5-naphthyridin-4-yl)oxy]-3-fluorophenyl]-5-(4-fluoro-2-methylphenyl)-4-hydroxy-2-methylpyridine-3-carboxamide] | < 100 nM | < 100 nM |
| COc1cc2nccc(Oc3ccc(NC(=O)c4cnc(C)c(-c5ccc(F)cc5)c4O)cc3F)c2nc1C [Compound 541, N-[3-fluoro-4-[(7-methoxy-6-methyl-1,5-naphthyridin-4-yl)oxy]phenyl]-5-(4-fluorophenyl)-4-hydroxy-6-methylpyridine-3-carboxamide] | < 100 nM | < 100 nM |
| COc1ccc2nccc(Oc3ccc(NC(=O)c4c(C)ncc(-c5ccc(F)cc5C)c4O)cc3F)c2n1 [Compound 480, N-[3-fluoro-4-[(6-methoxy-1,5-naphthyridin-4-yl)oxy]phenyl]-5-(4-fluoro-2-methylphenyl)-4-hydroxy-2-methylpyridine-3-carboxamide] | 100 to 300 nM | < 100 nM |
| CNc1nccc2c(Oc3ccc(NC(=O)c4cnc(C)n(-c5ccc(F)cc5)c4=O)cc3)ccnc12 [Compound 543, 1-(4-fluorophenyl)-2-methyl-N-[4-[[8-(methylamino)-1,7-naphthyridin-4-yl)oxy]phenyl]-6-oxopyrimidine-5-carboxamide] | < 100 nM | < 100 nM |
